Measurements: BigSolDB 2.1

CONC(=O)Nc1ccc(-c2sc3c(c2CN(C)C)c(=O)n(-c2ccc(OC)nn2)c(=O)n3Cc2c(F)cccc2F)cc1
solubility (mole fraction)
Details | 298.15 K | 303.15 K | 308.15 K | 313.15 K | 318.15 K | 323.15 K
in acetonitrile | 0.000483 | 0.000585 | 0.000667 | 0.000752 | 0.000856 | 0.000999
in ethanol | 0.000134 | 0.000152 | 0.000171 | 0.000209 | 0.00025 | 0.000301
in ethyl acetate | 0.000368 | 0.0004 | 0.00045 | 0.000505 | 0.000539 | 0.000576
in isopropanol | 6.6e-05 | 8.3e-05 | 0.000103 | 0.000125 | 0.000153 | 0.000191
in methanol | 0.000438 | 0.00051 | 0.000578 | 0.000639 | 0.000713 | 0.000774
